According to PubChem BioAssay (NCI):
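Values below derive from 48-hour exposures of cells grown in 96-well plates, with endpoints linearly interpolated between the two concentrations bracketing the appropriate inhibition level. TGI: total growth inhibition.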

Tests used:
Experiment in all cases: NCI tumour cell line growth inhibition, 48 h
[1] = test system: SF-268 CNS
[2] = test system: SR leukemia
[3] = test system: M14 melanoma
[4] = test system: NCI-H460 lung
[5] = test system: MDA-N
[6] = test system: OVCAR-5 ovarian
[7] = test system: ACHN renal
[8] = test system: HT29 colon
[9] = test system: DU-145 prostate
[10] = test system: NCI/ADR-RES ovarian
[11] = test system: KM12 colon
[12] = test system: RPMI-8226 leukemia
[13] = test system: MOLT-4 leukemia
[14] = test system: HCT-116 colon
[15] = test system: CCRF-CEM leukemia
[16] = test system: SK-OV-3 ovarian
[17] = test system: U251 CNS
[18] = test system: OVCAR-8 ovarian
[19] = test system: HCC-2998 colon
[20] = test system: PC-3 prostate
[21] = test system: UACC-257 melanoma
[22] = test system: TK-10 renal
[23] = test system: SK-MEL-5 melanoma
[24] = test system: OVCAR-4 ovarian
[25] = test system: SNB-19 CNS
[26] = test system: MALME-3M melanoma
[27] = test system: HCT-15 colon
[28] = test system: COLO 205 colon
[29] = test system: SW-620 colon
[30] = test system: SF-295 CNS
[31] = test system: K-562 leukemia
[32] = test system: UO-31 renal
[33] = test system: T-47D breast
[34] = test system: HOP-62 NSCLC
[35] = test system: CAKI-1 renal
[36] = test system: SN12C renal
[37] = test system: MDA-MB-231 breast
[38] = test system: HL-60(TB) leukemia

## COc1ccc2/c(=C/c3ccc(N(C)C)cc3)c3cc(-c4ccccc4)[n+](C)n3c2c1
[1]
  TGI: 1190 nM
[2]
  TGI: 962 nM
[3]
  TGI: 1160 nM
[4]
  TGI: 3560 nM
[5]
  TGI: 475 nM
[6]
  TGI: 1440 nM
[7]
  TGI: 2390 nM
[8]
  TGI: 624 nM
[9]
  TGI: 1770 nM
[10]
  TGI: > 100000 nM
[11]
  TGI: 1990 nM
[12]
  TGI: 912 nM
[13]
  TGI: 931 nM
[14]
  TGI: 1370 nM
[15]
  TGI: 5370 nM
[16]
  TGI: 1680 nM
[17]
  TGI: 1270 nM
[18]
  TGI: 731 nM
[19]
  TGI: 1080 nM
[20]
  TGI: 543 nM
[21]
  TGI: 888 nM
[22]
  TGI: 1430 nM
[23]
  TGI: 292 nM
[24]
  TGI: 4190 nM
[25]
  TGI: 2200 nM
[26]
  TGI: 579 nM
[27]
  TGI: 3280 nM
[28]
  TGI: 236 nM
[29]
  TGI: 1470 nM
[30]
  TGI: 2510 nM
[31]
  TGI: 1150 nM
[32]
  TGI: 5200 nM
[33]
  TGI: 2770 nM
[34]
  TGI: 2630 nM
[35]
  TGI: 7770 nM
[36]
  TGI: 1600 nM
[37]
  TGI: 1660 nM
[38]
  TGI: 106 nM
